“And” between values parts separate entries of the source, which are not always exact repeats. Equal entries are not always repeated.
System: 947758-054-R-J2-PDC spheroid growth, percent test/control
Test: Anticancer human tumor 947758-054-R-J2-PDC patient-derived colon adenocarcinoma cell line growth inhibition [CLK]
Conditions: spheroids with HUVEC and MSC; for viability, T/C: stronger effect = lower value
How it was run: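 Patient-derived tumor cells grown as complex spheroids with HUVEC endothelial cells and mesenchymal stem cells, treated with drug combinations. Concentrations descend in half-log steps from near clinical Cmax, or from 10 microM if Cmax unknown.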
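Also: spheroids exposed to compounds for one week before readout.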
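For viability, T/C in this document: 100% = DMSO vehicle control wells.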

Compound: CC(C)CC(NC(=O)C(Cc1ccccc1)NC(=O)c1cnccn1)B(O)O (stereo unspecified) + CN1CCN(c2cc(C(=O)Nc3cc4cc(-c5cnn(C)c5)ccc4cn3)ccn2)CC1
- IC50 (curve of first compound, second compound 0.0316 µM): 1.92 nM
- IC50 (curve of first compound, second compound 0.1 µM): 2.41 nM
- IC50 (curve of first compound, second compound 0.316 µM): < 0.949 nM
- IC50 (curve of first compound, second compound 1 µM): < 0.949 nM
- IC50 (curve of first compound, second compound 3.16 µM): < 0.949 nM
- IC50 (curve of first compound, second compound 10 µM): < 0.949 nM
- viability, T/C (second compound 0.0316 µM, first compound 0.000949 µM): 121%
- viability, T/C (second compound 0.0316 µM, first compound 0.003 µM): 5.43%
- viability, T/C (second compound 0.0316 µM, first compound 0.00949 µM): 0.78%
- viability, T/C (second compound 0.0316 µM, first compound 0.03 µM): 0.27%
- viability, T/C (second compound 0.0316 µM, first compound 0.0949 µM): 0.29%
- viability, T/C (second compound 0.0316 µM, first compound 0.3 µM): 0.27%
- viability, T/C (second compound 0.1 µM, first compound 0.000949 µM): 229%
- viability, T/C (second compound 0.1 µM, first compound 0.003 µM): 7.59%
- viability, T/C (second compound 0.1 µM, first compound 0.00949 µM): 0.31%
- viability, T/C (second compound 0.1 µM, first compound 0.03 µM): 0.29%
- viability, T/C (second compound 0.1 µM, first compound 0.0949 µM): 0.32%
- viability, T/C (second compound 0.1 µM, first compound 0.3 µM): 0.3%
- viability, T/C (second compound 0.316 µM, first compound 0.000949 µM): 1.38%
- viability, T/C (second compound 0.316 µM, first compound 0.003 µM): 0.21%
- viability, T/C (second compound 0.316 µM, first compound 0.00949 µM): 0.22%
- viability, T/C (second compound 0.316 µM, first compound 0.03 µM): 0.22%
- viability, T/C (second compound 0.316 µM, first compound 0.0949 µM): 0.2%
- viability, T/C (second compound 0.316 µM, first compound 0.3 µM): 0.23%
- viability, T/C (second compound 1 µM, first compound 0.000949 µM): 0.14%
- viability, T/C (second compound 1 µM, first compound 0.003 µM): 0.15%
- viability, T/C (second compound 1 µM, first compound 0.00949 µM): 0.15%
- viability, T/C (second compound 1 µM, first compound 0.03 µM): 0.16%
- viability, T/C (second compound 1 µM, first compound 0.0949 µM): 0.18%
- viability, T/C (second compound 1 µM, first compound 0.3 µM): 0.15%
- viability, T/C (second compound 3.16 µM, first compound 0.000949 µM): 0.21%
- viability, T/C (second compound 3.16 µM, first compound 0.003 µM): 0.12%
- viability, T/C (second compound 3.16 µM, first compound 0.00949 µM): 0.12%
- viability, T/C (second compound 3.16 µM, first compound 0.03 µM): 0.13%
- viability, T/C (second compound 3.16 µM, first compound 0.0949 µM): 0.21%
- viability, T/C (second compound 3.16 µM, first compound 0.3 µM): 2.33%
- viability, T/C (second compound 10 µM, first compound 0.000949 µM): 0.34%
- viability, T/C (second compound 10 µM, first compound 0.003 µM): 0.18%
- viability, T/C (second compound 10 µM, first compound 0.00949 µM): 1.25%
- viability, T/C (second compound 10 µM, first compound 0.03 µM): 0.16%
- viability, T/C (second compound 10 µM, first compound 0.0949 µM): 0.21%
- viability, T/C (second compound 10 µM, first compound 0.3 µM): 1.68%

Compound: COc1ccc([C@@H](O)c2cc(-c3ncnc4cc(N5CCOCC5)ccc34)c(F)cc2Cl)nn1
- viability, T/C (compound 0.0316 µM): 72.8% and 98.3%
- viability, T/C (compound 0.1 µM): 69.7% and 91.4%
- viability, T/C (compound 0.316 µM): 86.8% and 105%
- viability, T/C (compound 1 µM): 108% and 82.2%
- viability, T/C (compound 3.16 µM): 97.9% and 117%
- viability, T/C (compound 10 µM): 65.9% and 83.9%
- IC50 (curve of compound): > 10000 nM

Compound: C=CC(=O)N1CCN(c2nc(=O)n(-c3c(C)ccnc3C(C)C)c3nc(-c4c(O)cccc4F)c(F)cc23)C(C)C1 (stereo unspecified)
- viability, T/C (compound 0.0316 µM): 115% and 77.6%
- viability, T/C (compound 0.1 µM): 77.8% and 82.6%
- viability, T/C (compound 0.316 µM): 106% and 101%
- viability, T/C (compound 1 µM): 75.6% and 75%
- viability, T/C (compound 3.16 µM): 81.2% and 90.3%
- viability, T/C (compound 10 µM): 94.7% and 77.3%
- IC50 (curve of compound): > 10000 nM
